Like-named read-outs stand apart in the source and are kept apart here.
How the values were obtained:
[1] = tested on: patients aged 65 years or older with primary sleep maintenance insomnia; details: Per-Protocol N = 71; for WTDS, Mean (primary efficacy variable): WTDS typically expressed in minutes
Experimental: As used herein, the term “polysomnography” (PSG) refers a diagnostic test during which a number of physiologic variables are measured and recorded during sleep. Physiologic sensor leads are placed on the patient in order to record brain electrical activity, eye and jaw muscle movement, leg muscle movement, airflow, respiratory effort (chest and abdominal excursion), EKG and oxygen saturation. Information is gathered from all leads and fed into a computer and outputted as a series of waveform tracings which enable the technician to visualize the various waveforms, assign a score for the test, and assist in the diagnostic process. The primary efficacy variable, wake time during sleep (WTDS) and various secondary efficacy variables are all based on the PSG and are defined as follows.
“Wake Time During Sleep” (WTDS), typically expressed in minutes, is the number of wake events (epochs) after the onset of persistent sleep and prior to final awakening, divided by two. Each epoch is defined as a 30-second duration on the PSG recording.
“Wake Time After Sleep” (WTAS), typically expressed in minutes, is the number of epochs after the final awakening until the end of PSG recording (i.e., a wake epoch immediately prior to the end of the recording), divided by two.
“Wake After Sleep Onset” (WASO) is the sum of WTDS and WTAS.
“Latency to Persistent Sleep” (LPS), typically expressed in minutes, is the number of epochs from the beginning of the PSG recording (lights-out) to the start of the first 20 consecutive non-wake epochs, divided by two.
“Total Sleep Time” (TST), typically expressed in minutes, is the number of non-wake epochs from the beginning of the PSG recording to the end of the recording, divided by two.
“Sleep Efficiency” (SE) is the TST divided by the time in bed (8 hours), multiplied by 100 and expressed as a percentage. This also can be divided into SE for each third-of-the-night of sleep, reflecting the SE for each 160 minute time interval across the night. Finally, SE can be measured for individual hours during the night or sleep period, for example the final hour of the sleep period.
“NAASO” refers to the number of awakenings after sleep onset.
A randomized, multi-center, double-blind, placebo-controlled, four-period crossover, dose-response study was designed to assess the effects of doxepin (1 mg, 3 mg and 6 mg) compared with placebo in patients aged 65 years or older with primary sleep maintenance insomnia. Patients received a single-blind placebo for two consecutive nights during the PSG screening period, and double-blind study drug for two consecutive nights during each of the four treatment periods. […] Patients were allowed to leave the sleep center during the day after each PSG assessment was complete. A 5- or 12-day study drug-free interval separated each PSG assessment visit. The duration of study participation per patient was approximately 7 to 11 weeks.
Patients who qualified for study entry, based on the screening PSG assessments, were randomized to a treatment sequence using a Latin square design. A final study visit was performed for patients either after completion of the four treatment periods or upon discontinuation from the study. Efficacy assessments were made at each visit and safety assessments were performed throughout the study.
The main inclusion criteria were male and/or female patients, aged 65 years or older, in good general health with at least a 3-month history of Diagnostic and Statistical Manual of Mental Disorders, fourth Edition (DSM-IV)-defined primary insomnia, reporting each of the following on four of seven nights prior to PSG screening: ≤6.5 hours of total sleep time (TST), ≥60 min of wakefulness after sleep onset (WASO) and ≥20 min of latency to sleep onset (LSO). Doxepin HCl 1 mg, 3 mg and 6 mg capsules, and placebo capsules, were provided as a single dose for oral administration.
The primary efficacy assessment was WTDS.

[2] = tested on: Adult Patients (Ages 18-64) with Primary Insomnia; experiment: Adverse events and safety, adult crossover study (Example 3); type: in vivo, human
Experimental: A randomized, multi-center, double-blind, placebo-controlled, four-period crossover, dose-response study was designed to assess the effects of doxepin (1 mg, 3 mg and 6 mg) compared with placebo in patients with primary sleep maintenance insomnia.
The main inclusion criteria were male and/or female patients, aged 18 to 64 years, in good general health with at least a 3-month history of DSM-IV-defined primary insomnia, reporting each of the following on four of seven nights prior to PSG screening: ≤6.5 hours of total sleep time (TST), ≥60 min of WASO and ≥20 min of LSO. Doxepin HCl 1 mg, 3 mg and 6 mg capsules, and placebo capsules, were provided as a single dose for oral administration.

[3] = tested on: primary elderly insomnia patients with sleep maintenance difficulties; experiment: Safety and TEAEs, Phase III elderly study (Example 2)
Experimental: A phase III, randomized, double-blind, placebo-controlled, parallel-group, multicenter study was conducted to assess the long term efficacy and safety of two dose levels of doxepin HCl, 1 mg and 3 mg, in primary elderly insomnia patients with sleep maintenance difficulties.
Doxepin 1 mg tablets or 3 mg tablets (lot number 3044567) were administered as a single oral dose for 85 consecutive nights during the 12-week Double-blind Treatment Period.

[4] = tested on: primary elderly insomnia patients with sleep maintenance difficulties; experiment: Clinical Global Impressions (CGI), Phase III elderly study (Example 2); type: in vivo, human
Experimental: Subjective Variables: Subjective efficacy variables were subjective TST (sTST), subjective WASO (sWASO), LSO, subjective NAASO (sNAASO), and sleep quality. These variable were assessed using a questionnaire completed in the morning following each PSG recording night. Drowsiness, ability to function, and total nap time during the day were assessed using an evening questionnaire completed prior to PSG recording at Nights −6, −5, 1, 15, 29, 57, and 85. Other secondary subjective efficacy variables included the 2-item Clinical Global Impressions (CGI) scale for severity of illness and therapeutic effect completed by a clinician; the 5-item CGI scale pertaining to therapeutic effect completed by the subject; the Insomnia Severity Index (ISI) completed by the subject, and a subjective assessment of sTST, LSO, and sleep quality collected through the IVRS.
Clinical Global Impressions (CGI) ns (CGI) consist of two questions addressed to the clinician relating to the severity of illness and therapeutic effect of the study drug and five questions addressed to the patient relating to the therapeutic effect of the drug.

CN(C)CCC=C1c2ccccc2COc2ccccc21 (mixture of isomers) [Doxepin]
LPS, Mean ([1]; 1 mg): 28.3 min | NAASO, Mean ([1]; 1 mg): 12.3 | SE, Mean ([1]; 1 mg): 78.5% | TST, Mean ([1]; 1 mg): 376.8 min | WASO, Mean ([1]; 1 mg): 80.5 min | WTAS, Mean ([1]; 1 mg): 10.4 min | WTDS, Mean (primary efficacy variable) ([1]; 1 mg): 70.1 | WTDS, Mean (primary efficacy variable) ([1]; 1 mg, listed as doxepin): 70.1 (32.78) | LPS, Mean ([1]; 3 mg): 23.7 min | NAASO, Mean ([1]; 3 mg): 12.8 | SE, Mean ([1]; 3 mg): 81.0% | TST, Mean ([1]; 3 mg): 388.8 min | WASO, Mean ([1]; 3 mg): 72.3 min | WTAS, Mean ([1]; 3 mg): 5.9 min | WTDS, Mean (primary efficacy variable) ([1]; 3 mg): 66.4 | WTDS, Mean (primary efficacy variable) ([1]; 3 mg, listed as doxepin): 66.4 (31.56) | LPS, Mean ([1]; 6 mg): 22.4 min | NAASO, Mean ([1]; 6 mg): 12.5 | SE, Mean ([1]; 6 mg): 82.8% | TST, Mean ([1]; 6 mg): 397.4 min | WASO, Mean ([1]; 6 mg): 65.2 min | WTAS, Mean ([1]; 6 mg): 5.0 min | WTDS, Mean (primary efficacy variable) ([1]; 6 mg): 60.2 | WTDS, Mean (primary efficacy variable) ([1]; 6 mg, listed as doxepin): 60.2 (28.00) | HEADACHE: Number of Events ([2]; 1 mg, N = 66): 3 | HEADACHE: Number of Patients ([2]; 1 mg, N = 66): 3 (5%) | NASAL CONGESTION: Number of Events ([2]; 1 mg, N = 66): 1 | NASAL CONGESTION: Number of Patients ([2]; 1 mg, N = 66): 1 (2%) | HEADACHE: Number of Events ([2]; 3 mg, N = 66): 0 | HEADACHE: Number of Patients ([2]; 3 mg, N = 66): 0 (0%) | NASAL CONGESTION: Number of Events ([2]; 3 mg, N = 66): 0 | NASAL CONGESTION: Number of Patients ([2]; 3 mg, N = 66): 0 (0%) | HEADACHE: Number of Events ([2]; 6 mg, N = 67): 1 | HEADACHE: Number of Patients ([2]; 6 mg, N = 67): 1 (1%) | NASAL CONGESTION: Number of Events ([2]; 6 mg, N = 67): 0 | NASAL CONGESTION: Number of Patients ([2]; 6 mg, N = 67): 0 (0%) | deaths during the study or within 30 days following last dose ([3]; 1 mg and 3 mg): no reported deaths | Infections and Infestations, subjects (%) ([3]; 1 mg, N = 77): 12 (16%) | Upper respiratory tract infection, subjects (%) ([3]; 1 mg, N = 77): 2 (3%) | Urinary tract infection, subjects (%) ([3]; 1 mg, N = 77): 2 (3%) | Infections and Infestations, subjects (%) ([3]; 3 mg, N = 82): 11 (13%) | Upper respiratory tract infection, subjects (%) ([3]; 3 mg, N = 82): 1 (1%) | Urinary tract infection, subjects (%) ([3]; 3 mg, N = 82): 0 (0%) | mean CGI (clinician-rated) severity of illness and therapeutic effect scores compared with placebo ([4]; Night 85, both doxepin treatment groups (1 mg, 3 mg)): statistically significant improvements | CGI (subject-rated) scale of therapeutic effect, all five parameters, compared with placebo ([4]; after 85 nights of treatment, both doxepin groups (1 mg, 3 mg)): statistically significant improvements

Reference: patent US11234954B2, “Low-dose doxepin for treatment of sleep disorders in elderly patients” (Pernix Sleep, Inc., priority 2006, dated 2022)
